According to patent US20230331715A1, “SPIRO[3.3]HEPTANE DERIVATIVES FOR THE TREATMENT AND PROPHYLAXIS OF HEPATITIS B VIRUS INFECTION” (priority 2020, published 2023):
Read-outs that look alike come from different tables or passages of the source.

Columns and labels:
Assay type in all cases: cell-based
HBsAg = assay: PHH HBV natural infection assay, HBsAg (alphalisa)
Method: (§1) Detailed procedures regarding primary human hepatocyte (PHH) HBV natural infection assay are described as below. One tube of frozen PHH (10 million cells) is thawed in 37° C. water bath and then transferred to 20 mL of PHH thawing medium (Sigma, InVitroGRO HT Medium, Cat. S03319) with gently mixing. The cells were then centrifuged at […] for 5 min, the supernatant was discarded and the tube was refilled with 25 mL of PHH plating medium (Sigma, InVitroGRO CP Medium, Cat. S03317). The tube was shaken very gently to re-suspend all cells, and then 50 µl of cells were transferred to each well 384-well collagen I coated plate with appropriate liquid handling equipment, e.g. Integra VIAFLO384 or Agilent Bravo. The cells were then cultured for 24 hours in a cell incubator. For HBV infection, after PHH attachment on the culture plate, the plating medium was removed and replenished with PHH culture medium containing HBV virus. The PHH culture medium was prepared with Dulbecco’s Modified Eagle Medium (DMEM)/F12 (1: 1 in volume ratio) containing 10% fetal bovine serum (Gibco, Cat. 10099141), 5 ng/mL human epidermal growth factor (Gibco, Cat.PHG0311L), 20 ng/mL dexamethasone (Sigma, Cat.D4902-100mg), 250 ng/mL human recombinant insulin (Gibco, Cat.41400045) and 100 U/mL penicillin. HBV virus at 200 genome equivalent (GE) per cell with 4% PEG8000 (Sigma, Cat.P1458) containing culture medium were added to the PHH culture medium for infection. The cells were then cultured for 24 hours in cell incubator. Then the cell culture supernatant was removed. The HBV-infected PHH were cultured with sandwich culture method with PHH culture medium containing 1% DMSO and 0.25 mg/mL matrix gel for 72 hours. The supernatant was then refreshed with PHH culture medium containing different concentrations of testing compounds for two times with 72-hour interval. At the end of treatment, the supernatant was collected for viral markers measurements, including HBsAg, HBeAg, HBV DNA and cytotoxicity. HBsAg and HBeAg were detected using alphalisa method using their specific antibodies. For HBV DNA detection, HBV DNA Quantitative Fluorescence Diagnostic Kit (Sansure Biotech Inc.) was used following the manufacture’s protocol. Cytotoxicity was determined using Cell Counting Kit-8 (CCK8, Dojindo Molecular Technologies, Inc.).
(§2) The compounds of the present invention were tested for their capacity to inhibit HBsAg and HBeAg as described herein.

HBeAg = assay: PHH HBV natural infection assay, HBeAg (alphalisa)
Method: as §1, §2

[1] = Cytotoxicity in PHH natural infection assay (Cell Counting Kit-8); settings: human; HBV-infected PHH, CCK8, compound refreshed two times with 72-hour interval
Method: as §1

[2] = Hepatitis B virus, 72 h, read-out: HBsAg IC50, HBV-infected PHH, culture supernatant, compound refreshed two times with 72-hour interval, alphalisa
[3] = Hepatitis B virus, 72 h, read-out: HBeAg IC50, HBV-infected PHH, culture supernatant, compound refreshed two times with 72-hour interval, alphalisa
[4] = read-out: HBsAg IC50, HBV-infected PHH, culture supernatant, compound refreshed two times with 72-hour interval, alphalisa
[5] = read-out: HBeAg IC50, HBV-infected PHH, culture supernatant, compound refreshed two times with 72-hour interval, alphalisa

| Compound | IC50 (HBsAg; [2]) [µM] | IC50 (HBeAg; [3]) [µM] | CC50 at 144 h [1] [µM] | IC50 (HBsAg; [4]) [µM] | IC50 (HBeAg; [5]) [µM] |
| --- | --- | --- | --- | --- | --- |
| CS(=O)(=O)Cc1cc(C(=O)NC2CC3(C2)CC(c2nc4cc(Cl)ccc4s2)C3)ccn1 (stereo not drawn) [Example 7, N-[6-(5-chloro-1,3-benzothiazol-2-yl)spiro[3.3]heptan-2-yl]-2-(methylsulfonylmethyl)pyridine-4-carboxamide] | 3.33 | 3.09 | > 10 |  |  |
| O=C(NC1CC2(C1)CC(c1nc3cc(Cl)ccc3s1)C2)c1ccc(C(O)C(F)(F)F)o1 (stereo not drawn) [Example 18, N-[6-(5-chloro-1,3-benzothiazol-2-yl)spiro[3.3]heptan-2-yl]-5-(2,2,2-trifluoro-1-hydroxyethyl)furan-2-carboxamide] | 5.52 | 4.59 | > 10 |  |  |
| CC(C)(c1cc(C(=O)NC2CC3(C2)CC(c2nc4cc(Cl)ccc4s2)C3)ccn1)S(C)(=O)=O (stereo not drawn) [Example 8, N-[6-(5-chloro-1,3-benzothiazol-2-yl)spiro[3.3]heptan-2-yl]-2-(1-methyl-1-methylsulfonylethyl)pyridine-4-carboxamide] | 1.89 | 1.23 | 35.9 |  |  |
| [H][C@]1(NC(=O)c2ccnc(S(C)(=O)=O)c2)C[C@]2(C1)C[C@]([H])(c1nc3cc(Cl)ccc3s1)C2 (single isomer, unassigned) [Example 54-b, (Ra)-N-[6-(5-chloro-1,3-benzothiazol-2-yl)spiro[3.3]heptan-2-yl]-2-methylsulfonyl-pyridine-4-carboxamide] |  |  | 15.3 | 0.28 | 0.23 |
| O=C(NC1CC2(C1)CC(c1nc3cc(Cl)ccc3s1)C2)c1ccc(S(=O)(=O)NC2CC(F)(F)C2)o1 (stereo not drawn) [Example 23, N-[6-(5-chloro-1,3-benzothiazol-2-yl)spiro[3.3]heptan-2-yl]-5-[(3,3-difluorocyclobutyl)sulfamoyl]furan-2-carboxamide] | 1.25 | 0.85 | 14.3 |  |  |
| O=C(NC1CC2(C1)CC(c1nc3cc(Cl)ccc3s1)C2)c1ccnc(C(F)(F)F)c1 (stereo not drawn) [Example 4, N-[6-(5-chloro-1,3-benzothiazol-2-yl)spiro[3.3]heptan-2-yl]-2-(trifluoromethyl)pyridine-4-carboxamide] | 5.05 | 4.34 | > 10 |  |  |
| N=S(=O)(c1cc(C(=O)NC2CC3(C2)CC(c2nc4cc(Cl)ccc4s2)C3)ccn1)C1CC1 (stereo not drawn) [Example 41, N-[6-(5-chloro-1,3-benzothiazol-2-yl)spiro[3.3]heptan-2-yl]-2-(cyclopropylsulfonimidoyl)pyridine-4-carboxamide] | 0.9 | 0.67 | > 10 |  |  |
| COc1cc(C(=O)NC2CC3(C2)CC(c2nc4cc(Cl)ccc4s2)C3)ccn1 (stereo not drawn) [Example 42, N-[6-(5-chloro-1,3-benzothiazol-2-yl)spiro[3.3]heptan-2-yl]-2-methoxy-pyridine-4-carboxamide] | 3.12 | 2.67 | > 10 |  |  |
| O=C(NC1CC2(C1)CC(c1nc3cc(Cl)ccc3s1)C2)c1ccc(C(F)(F)F)o1 (stereo not drawn) [Example 14, N-[6-(5-chloro-1,3-benzothiazol-2-yl)spiro[3.3]heptan-2-yl]-5-(trifluoromethyl)furan-2-carboxamide] | 2.48 | 2.52 | > 100 |  |  |
| O=C(NC1CC2(C1)CC(c1nc3ccc(Cl)cc3s1)C2)C1CCS(=O)(=O)C1 (stereo not drawn) [Example 27, N-[6-(6-chloro-1,3-benzothiazol-2-yl)spiro[3.3]heptan-2-yl]-1,1-dioxo-thiolane-3-carboxamide] | 1.15 | 0.56 | > 100 |  |  |
| [H][C@]1(NC(=O)c2ccnc(C(N)=O)c2)C[C@]2(C1)C[C@]([H])(c1nc3cc(Cl)ccc3s1)C2 (single isomer, unassigned) [Example 53-b, (Ra)-N4-[6-(5-chloro-1,3-benzothiazol-2-yl)spiro[3.3]heptan-2-yl]pyridine-2,4-dicarboxamide] |  |  | > 10 | 5.96 | 5.25 |
| CC(C)Oc1cc(C(=O)NC2CC3(C2)CC(c2nc4cc(Cl)ccc4s2)C3)ccn1 (stereo not drawn) [Example 43, N-[6-(5-chloro-1,3-benzothiazol-2-yl)spiro[3.3]heptan-2-yl]-2-isopropoxy-pyridine-4-carboxamide] | 3.23 | 2.86 | > 10 |  |  |
| [H][C@]1(NC(=O)c2ccnc(S(=O)(=O)C3CC3)c2)C[C@]2(C1)C[C@]([H])(c1nc3cc(Cl)ccc3s1)C2 (single isomer, unassigned) [Example 55-b, (Ra)-N-[6-(5-chloro-1,3-benzothiazol-2-yl)spiro[3.3]heptan-2-yl]-2-cyclopropylsulfonyl-pyridine-4-carboxamide] |  |  | 11.6 | 0.54 | 0.4 |
| O=C(NC1CC2(C1)CC(c1nc3cc(Cl)ccc3s1)C2)c1ccnc(N2CCOCC2)c1 (stereo not drawn) [Example 52, N-[6-(5-chloro-1,3-benzothiazol-2-yl)spiro[3.3]heptan-2-yl]-2-morpholino-pyridine-4-carboxamide] | 2.59 | 2.79 | > 10 |  |  |
| CNc1cc(C(=O)NC2CC3(C2)CC(c2nc4cc(Cl)ccc4s2)C3)ccn1 (stereo not drawn) [Example 44, N-[6-(5-chloro-1,3-benzothiazol-2-yl)spiro[3.3]heptan-2-yl]-2-(methylamino)pyridine-4-carboxamide] | 3.24 | 3.18 | > 10 |  |  |
| CC(C)(C)S(=O)(=O)c1cc(C(=O)NC2CC3(C2)CC(c2nc4cc(Cl)ccc4s2)C3)ccn1 (stereo not drawn) [Example 38, 2-tert-butylsulfonyl-N-[6-(5-chloro-1,3-benzothiazol-2-yl)spiro[3.3]heptan-2-yl]pyridine-4-carboxamide] | 1.95 | 1.49 | 30.8 |  |  |
| O=C(NC1CC2(C1)CC(c1nc3cc(Cl)ccc3s1)C2)c1ccc(S(=O)(=O)NC2CC(C(F)(F)F)C2)o1 (stereo not drawn) [Example 24, N-[6-(5-chloro-1,3-benzothiazol-2-yl)spiro[3.3]heptan-2-yl]-5-[[3-(trifluoromethyl)cyclobutyl]sulfamoyl]furan-2-carboxamide] | 1.4 | 1.04 | 19.7 |  |  |
| O=C(NC1CC2(C1)CC(c1nc3cc(Cl)ccc3s1)C2)c1ccnc(S(=O)(=O)CC2CC2)c1 (stereo not drawn) [Example 39, N-[6-(5-chloro-1,3-benzothiazol-2-yl)spiro[3.3]heptan-2-yl]-2-(cyclopropylmethylsulfonyl)pyridine-4-carboxamide] | 0.79 | 0.34 | > 10 |  |  |
